Results from the supplement of paper PMC9663587.

Experiments:
CAL120 = assay: area over the GR curve, 72 h; higher = more effect;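 note: Dye Drop or Deep Dye Drop imaging of viable cells in 384-well plates (Hoechst nuclei, LIVE/DEAD dye), nine half-log doses, GR normalized to DMSO controls and time-zero plates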
MCF10A = assay: area over the GR curve, 72 h; higher = more effect;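 note: Dye Drop or Deep Dye Drop imaging of viable cells in 384-well plates (Hoechst nuclei, LIVE/DEAD dye), nine half-log doses, GR normalized to DMSO controls and time-zero plates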
PDX1258 = assay: area over the GR curve, 72 h; higher = more effect;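 note: Dye Drop or Deep Dye Drop imaging of viable cells in 384-well plates (Hoechst nuclei, LIVE/DEAD dye), nine half-log doses, GR normalized to DMSO controls and time-zero plates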
HCC1143 = assay: GRmax, 72 h; higher = less effect;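 note: breast cell lines in 384-well plates, nine doses across a 10^4 range, Dye Drop imaging of viable cells vs DMSO and time-zero plates, GR 0 means no net growth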
SUM44PE = assay: GRmax, 72 h; higher = less effect;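 note: breast cell lines in 384-well plates, nine doses across a 10^4 range, Dye Drop imaging of viable cells vs DMSO and time-zero plates, GR 0 means no net growth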
HCC70 = assay: GRmax, 72 h; higher = less effect;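 note: breast cell lines in 384-well plates, nine doses across a 10^4 range, Dye Drop imaging of viable cells vs DMSO and time-zero plates, GR 0 means no net growth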
CAL51 = assay: GRmax, 72 h; higher = less effect;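 note: breast cell lines in 384-well plates, nine doses across a 10^4 range, Dye Drop imaging of viable cells vs DMSO and time-zero plates, GR 0 means no net growth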
UACC893 = assay: GRmax, 72 h; higher = less effect
CAMA1 = assay: GRmax, 72 h; higher = less effect
BT474 = assay: GRmax, 72 h; higher = less effect
UACC812 = assay: GRmax, 72 h; higher = less effect
CAL851 = assay: GRmax, 72 h; higher = less effect

Row | Structure (SMILES) | area over the GR curve (CAL120) | area over the GR curve (MCF10A) | area over the GR curve (PDX1258) | GRmax, 72 h (HCC1143) | GRmax, 72 h (SUM44PE) | GRmax, 72 h (HCC70) | GRmax, 72 h (CAL51) | GRmax, 72 h (UACC893) | GRmax, 72 h (CAMA1) | GRmax, 72 h (BT474) | GRmax, 72 h (UACC812) | GRmax, 72 h (CAL851)
1 | CCC(=O)Nc1ccc(C(=O)Nc2ccc(Nc3ncc4c(n3)N(C)c3ccc(C)cc3C(=O)N4C)cc2)cc1 [FMF-03-145-1] | 0.34 GR | 1.05 GR | 1.12 GR | 0.09 GR | -0.0614 GR | -0.317 GR | 0.0325 GR | 0.127 GR | 0.0253 GR | -0.227 GR | -0.198 GR | -0.136 GR
2 | COc1cc(N2CCN(C)CC2)ccc1Nc1ncc2c(n1)N(C)c1ccccc1C(=O)N2CC(F)(F)F [FMF-03-146-1] | -0.0113 GR | -0.0018 GR | -0.0674 GR | 0.815 GR | 0.946 GR | 0.926 GR | 0.922 GR | 0.987 GR | 0.82 GR | 1.07 GR | 0.918 GR | 0.916 GR
3 | CN1CC[C@H](c2c(O)cc(O)c3c(=O)cc(-c4ccccc4Cl)oc23)[C@H](O)C1 [Flavopiridol] (max 1 µM) | 0.229 GR | 0.277 GR | 0.341 GR | -0.316 GR | -0.573 GR | -0.811 GR | -0.0935 GR | -0.464 GR | -0.13 GR | -0.751 GR | -0.813 GR | -0.223 GR
4 | CC(C)n1nc(-c2ccc3oc(N)nc3c2)c2c(N)ncnc21 [INK128/MLN0128] (max 3.162 µM) | 0.602 GR | 0.467 GR | 0.449 GR | 0.0314 GR | -0.523 GR | -0.162 GR | 0.0529 GR | -0.483 GR | -0.0962 GR | -0.587 GR | -0.707 GR | 0.016 GR
5 | CC(C)NC[C@@H](C(=O)N1CCN(c2ncnc3c2[C@H](C)C[C@H]3O)CC1)c1ccc(Cl)cc1 [Ipatasertib/GDC0068] (max 10 µM) | 0.13 GR | 0.06 GR | 0.15 GR | 0.751 GR | -0.0416 GR | -0.262 GR | 0.387 GR | -0.794 GR | -0.236 GR | -0.358 GR | 0.0704 GR | 0.471 GR
6 | CN(C)C(=O)c1cc2cnc(Nc3ccc(N4CCNCC4)cn3)nc2n1C1CCCC1 [LEE011/Ribociclib] (max 10 µM) | 0.265 GR | 0.235 GR | -0.124 GR | 0.298 GR | 0.378 GR | 1.04 GR | 0.385 GR | 0.469 GR | 0.122 GR | 0.583 GR | 0.0889 GR | 1.04 GR
7 | CCNC(=O)c1noc(-c2cc(C(C)C)c(O)cc2O)c1-c1ccc(CN2CCOCC2)cc1 [Luminespib/NVP-AUY922] (max 1 µM) | 0.693 GR | 0.613 GR | 0.608 GR | -0.192 GR | -0.483 GR | -0.583 GR | -0.339 GR | -0.898 GR | -0.0698 GR | -0.505 GR | -0.521 GR | -0.384 GR
8 | CCOc1cc2ncc(C#N)c(Nc3ccc(OCc4ccccn4)c(Cl)c3)c2cc1NC(=O)/C=C/CN(C)C [Neratinib/HKI272] (max 3.162 µM) | 0.224 GR | 0.344 GR | 0.154 GR | 0.0791 GR | -0.202 GR | 0.0595 GR | 0.28 GR | -0.901 GR | 0.449 GR | -0.919 GR | -0.756 GR | -0.326 GR
9 | O=C(c1cc(Cc2n[nH]c(=O)c3ccccc23)ccc1F)N1CCN(C(=O)C2CC2)CC1 [Olaparib/AZD2281] (max 10 µM) | 0.143 GR | 0.0408 GR | 0.02 GR | 0.456 GR | 0.803 GR | 0.719 GR | 0.36 GR | 0.549 GR | 0.679 GR | 0.64 GR | 0.199 GR | 0.387 GR
10 | CC(=O)O[C@H]1C(=O)[C@@]2(C)[C@H]([C@H](OC(=O)c3ccccc3)[C@]3(O)C[C@H](OC(=O)[C@H](O)[C@@H](NC(=O)c4ccccc4)c4ccccc4)C(C)=C1C3(C)C)[C@]1(OC(C)=O)CO[C@@H]1C[C@@H]2O [Paclitaxel] (max 1 µM) | 0.746 GR | 0.702 GR | 0.68 GR | -0.335 GR | -0.474 GR | -0.506 GR | -0.22 GR | -0.384 GR | -0.494 GR | -0.636 GR | -0.852 GR | -0.346 GR
11 | CS(=O)(=O)N1CCN(Cc2cc3nc(-c4cccc5[nH]ncc45)nc(N4CCOCC4)c3s2)CC1 [Pictilisib/GDC0941] (max 10 µM) | 0.255 GR | 0.262 GR | 0.23 GR | -0.129 GR | -0.205 GR | -0.597 GR | 0.0266 GR | -0.878 GR | -0.237 GR | -0.828 GR | -0.601 GR | -0.0252 GR
12 | O=C1NC(=NCc2cccs2)SC1=Cc1ccc2ncccc2c1 [R0-3306] (max 10 µM) | 0.0133 GR | 0.115 GR | 0.0971 GR | -0.114 GR | -0.266 GR | -0.204 GR | 0.232 GR | 0.376 GR | 0.0254 GR | 0.144 GR | -0.171 GR | -0.0866 GR
13 | CNCc1ccc(-c2[nH]c3cc(F)cc4c3c2CCNC4=O)cc1 [Rucaparib] (max 10 µM) | 0.125 GR | 0.0413 GR | 0.204 GR | 0.785 GR | 0.867 GR | 1.06 GR | 0.704 GR | 0.502 GR | 0.789 GR | 0.852 GR | 0.661 GR | 0.44 GR
14 | CC1(N)CCN(c2cnc(-c3cccc(Cl)c3Cl)c(N)n2)CC1 [SHP099] (max 10 µM) | -0.0004 GR | 0.081 GR | -0.0325 GR | 0.796 GR | 0.807 GR | 0.708 GR | 0.904 GR | 0.703 GR | 0.779 GR | 0.889 GR | 0.651 GR | 0.632 GR
15 | CN1CCN(CCOc2cc(OC3CCOCC3)c3c(Nc4c(Cl)ccc5c4OCO5)ncnc3c2)CC1 [Saracatinib/AZD0530] (max 10 µM) | 0.173 GR | 0.125 GR | 0.275 GR | 0.388 GR | 0.381 GR | -0.172 GR | 0.258 GR | 0.141 GR | 0.774 GR | -0.548 GR | -0.847 GR | 0.116 GR
16 | Cc1cc(C(C)Nc2ccccc2)c2nc(N3CCOCC3)cc(=O)n2c1 (configuration not stated) [TGX221] (max 10 µM) | -0.0168 GR | 0.005 GR | -0.0475 GR | 0.918 GR | 1.04 GR | 0.0049 GR | 0.91 GR | 0.939 GR | 0.85 GR | 0.524 GR | 0.0432 GR | 0.99 GR
17 | CN(C)C/C=C/C(=O)Nc1ccc(C(=O)Nc2cccc(Nc3ncc(Cl)c(-c4c[nH]c5ccccc45)n3)c2)cc1 [THZ1] (max 1 µM) | 0.337 GR | 0.36 GR | 0.633 GR | -0.318 GR | -0.292 GR | -0.944 GR | 0.107 GR | -0.525 GR | -0.486 GR | -0.658 GR | -0.348 GR | -0.549 GR
18 | CN(C)C/C=C/C(=O)Nc1ccc(C(=O)N2CCC[C@@H](Nc3ncc(Cl)c(-c4c[nH]c5ccccc45)n3)C2)cc1 [THZ531] (max 1 µM) | 0.21 GR | 0.162 GR | 0.457 GR | -0.23 GR | -0.203 GR | -0.933 GR | 0.559 GR | -0.417 GR | -0.398 GR | -0.861 GR | 0.556 GR | -0.196 GR
19 | CN(C)C/C=C/C(=O)Nc1ccc(C(=O)Nc2cccc(Nc3cc(-c4c[nH]c5ccccc45)ncn3)c2)cc1 [THZ-P1-2] (max 10 µM) | 0.124 GR | 0.13 GR | 0.572 GR | -0.404 GR | -0.518 GR | -0.837 GR | 0.751 GR | -0.761 GR | -0.626 GR | -0.697 GR | -0.371 GR | 0.468 GR
20 | Cc1nc(-c2cn3c(n2)-c2ccc(-c4cnn(C(C)(C)C(N)=O)c4)cc2OCC3)n(C(C)C)n1 [Taselisib/GDC0032] (max 10 µM) | 0.235 GR | 0.484 GR | 0.278 GR | -0.0942 GR | -0.392 GR | -0.685 GR | -0.413 GR | -0.898 GR | -0.152 GR | -0.989 GR | -0.636 GR | -0.0171 GR
21 | O=C1NC(=O)[C@@H](c2cn3c4c(cccc24)CCC3)[C@@H]1c1c[nH]c2ccccc12 [Tivantinib/ARQ197] (max 10 µM) | 0.465 GR | 0.451 GR | 0.373 GR | -0.312 GR | -0.338 GR | -0.566 GR | -0.282 GR | -0.248 GR | -0.566 GR | -0.323 GR | -0.84 GR | -0.326 GR
22 | Nc1ccc(-c2ccc3ncc4ccc(=O)n(-c5cccc(C(F)(F)F)c5)c4c3c2)cn1 [Torin2] (max 1 µM) | 0.487 GR | 0.337 GR | 0.362 GR | -0.153 GR | -0.556 GR | -0.555 GR | -0.152 GR | -0.828 GR | -0.147 GR | -0.648 GR | -0.817 GR | -0.154 GR
23 | CC[C@@H]1C(=O)N(C)c2cnc(Nc3ccc(C(=O)N[C@H]4CC[C@H](N5CCN(CC6CC6)CC5)CC4)cc3OC)nc2N1C(C)C [Volasertib/BI6727] (max 1 µM) | 0.676 GR | 0.447 GR | 0.549 GR | -0.345 GR | -0.288 GR | -0.205 GR | -0.337 GR | -0.424 GR | -0.296 GR | -0.284 GR | -0.496 GR | -0.289 GR
24 | O=C(CCCCCCC(=O)Nc1ccccc1)NO [Vorinostat] (max 10 µM) | 0.241 GR | 0.168 GR | 0.211 GR | -0.253 GR | -0.427 GR | -0.476 GR | -0.0506 GR | -0.337 GR | -0.49 GR | -0.924 GR | -0.487 GR | -0.183 GR
25 | C=CC(=O)Nc1ccc(C(=O)Nc2[nH]nc3c2CN(C(=O)N[C@H](CN(C)C)c2ccccc2)C3(C)C)cc1 [YKL-5-124] (max 10 µM) | 0.591 GR | 0.921 GR | 0.993 GR | -0.0844 GR | -0.448 GR | -0.835 GR | 0.0082 GR | -0.626 GR | -0.604 GR | -0.566 GR | -0.403 GR | -0.592 GR
26 | CN1CCN(C(=O)c2ccc3cc(CCNc4ncnc5ccc(C#N)cc45)ccc3c2)CC1 [senexin b] (max 10 µM) | 0.131 GR | -0.0308 GR | 0.125 GR | 0.452 GR | 0.309 GR | 0.458 GR | 0.755 GR | 0.71 GR | 0.229 GR | 0.107 GR | 0.248 GR | 0.615 GR
